Tests used:
[1] = tested on: human breast cancer cell line MDA-MB231; assay: MDA-MB231 growth inhibition assay; type: cell-based; conditions: 3 days incubation, CellTiter-Glo
Protocol: (§1) In this assay, the growth inhibitory activity of test compounds in a human breast cancer cell line MDA-MB231 was measured. MDA-MB231 cells were maintained in Dulbecco's Modified Eagle's medium (Wako Pure Chemical Industries, Ltd., 044-29765) medium containing 10% fetal bovine serum (FBS: Nichirei, 12D168), and penicillin and streptomycin in a 5% CO2 incubator (37° C.). To each well of a 96 well plate (Becton, Dickinson and Company, 353219), 75 μL of MDA-MB231 cell suspension adjusted to a concentration of 4×10^4 cells/mL with the culture medium was added, and the cells were incubated overnight in a 5% CO2 incubator (37° C.). On the next day, 25 μL of Compound (1) or Halichondrin B in three-fold dilution series suspended in the culture medium was added to each well, and the resultant was incubated for 3 days in a 5% CO2 incubator (37° C.). Then, cell viability was determined by CellTiter-Glo® Luminescent Cell Viability Assay (Promega) with EnVision 2103 Multilabel Reader (Perkin-Elmer, Wellesley, MA). Value of the wells containing cells without adding the test compounds was defined as 100% and the value of the wells containing no cells was defined as 0%. The concentration of the test compound necessary for inhibiting the cell growth by 50% (i.e., an IC50 value) was calculated, and shown in Table 2.

[2] = tested on: FaDu subcutaneous xenograft; assay: FaDu subcutaneous xenograft model in combination with cetuximab; type: in vivo, nude mice
Excerpt: (§2) A human squamous cell carcinoma of the head and neck (SCCHN) cell line FaDu, which had been cultured in an RPMI-1640 medium containing 10% FBS, and penicillin and streptomycin, was adjusted to a concentration of 5×10^7 cells/mL with Hanks' Balanced Salt Solution to prepare a cell suspension. The cell suspension was inoculated in a volume of 100 L into a subcutaneous part of a right flank of nude mice, 7 weeks of ages (CAnN.Cg-Foxnlnu/CrlCrlj, female, Charles River Laboratories Japan Inc.). Ten days after cell inoculation, the shortest diameter and the longest diameter of a tumor in each mouse were measured by using an electronic digital caliper (Digimatic™ caliper, Mitutoyo Corporation), so as to calculate the volume of the tumor in accordance with the following calculation formulae: […]
On the basis of the volumes of tumors obtained on the first day of administration, the mice were grouped such that averages of the tumor volumes were substantially equal among the groups. Each test compound was dissolved in DMSO and a solution was stored at the freezer before use. Immediately before the administration, the stock solution was diluted in saline with 100 μM of hydroxypropyl-β-cyclodextrin. […] Incidentally, the experiment was conducted on groups each consisting of 4 mice.

[3] = tested on: FaDu subcutaneous xenograft; assay: Antitumor effects in FaDu subcutaneous xenograft model as monotherapy; type: in vivo, nude mice; conditions: intravenous at MTD: Halichondrin B 0.05 mg/kg, Compound (1) 0.2 mg/kg
Protocol: as §2, with “of 4.8×10^7” for “of 5×10^7”, “100 μL” for “100 L”, “Inc.). Nine” for “Inc.). Ten”
On the basis of the volumes of tumors obtained on the first day of administration, the mice were grouped such that averages of the tumor volumes were substantially equal among the groups. Each test compound was dissolved in DMSO and a solution was stored at the freezer before use. Immediately before the administration, the stock solution was diluted in saline with 100 μM of hydroxypropyl-β-cyclodextrin. Each evaluation sample was intravenously administered at a maximum tolerable dose (MTD). Incidentally, the experiment was conducted on groups each consisting of 4 mice.

[4] = tested on: human breast cancer cell line HCC1954; assay: HCC1954 growth inhibition assay (Test Example 3); type: cell-based; conditions: 3 days incubation, CellTiter-Glo
Protocol: as §1, with “line HCCl954” for “line MDA-MB231”, “measured. HCC1954” for “measured. MDA-MB231”, “in an RPMI-1640” for “in Dulbecco's Modified Eagle's”, “medium modified to contain 2 mM L-glutamine, 10 mM HEPES, 1 mM sodium pyruvate, 4500 mg/L glucose, and 1500 mg/L sodium bicarbonate (ATCC 30-2001)” for “medium (Wako Pure Chemical Industries, Ltd., 044-29765) medium”, “of HCC1954” for “of MDA-MB231”, “Table 3.” for “Table 2.”

[5] = ¼ MTD i.v. (Halichondrin B 0.0125 mg/kg, Compound (1) 0.05 mg/kg) + cetuximab 20 mg/kg
[6] = ½ MTD i.v. (Halichondrin B 0.025 mg/kg, Compound (1) 0.1 mg/kg) + cetuximab 20 mg/kg

Structure (SMILES) | IC50 ([1]; Homo sapiens, MDA-MB-231, 72 h) [nM] | Tumor Regression on day 35 (%) [2, 5] [%] | Tumor Regression on day 35 (%) [2, 6] [%] | Tumor Regression (%) [3] [%] | IC50 ([4]; Homo sapiens, HCC1954, 72 h) [nM] | IC50 [1] [nM] | IC50 [4] [nM]
C=C1C[C@@H]2CC[C@@]34C[C@H]5O[C@H]6[C@@H](O3)[C@H]3O[C@H](CC[C@@H]3O[C@H]6C5O4)CC(=O)O[C@@H]3[C@@H](C)[C@@H]4O[C@@H]5C[C@]6(C[C@@H]7O[C@]8(C[C@H](C)[C@@H]9O[C@H](CN)[C@H](O)C[C@@H]9O8)C[C@H](C)[C@@H]7O6)O[C@@H]5C[C@@H]4O[C@H]3C[C@H]3O[C@@H](CC[C@@H]1O2)C[C@@H](C)C3=C (stereo in doubt) [Compound (1)] | 0.109 | 38 | 60 | 43 | 0.0668 | – | –
C=C1C[C@@H]2CC[C@@]34C[C@H]5O[C@H]6[C@@H](O3)[C@H]3O[C@H](CC[C@@H]3O[C@H]6[C@H]5O4)CC(=O)O[C@@H]3[C@@H](C)[C@@H]4O[C@@H]5C[C@]6(C[C@@H]7O[C@]8(C[C@H](C)[C@@H]9O[C@H]([C@@H](O)C[C@@H](O)CO)C[C@@H]9O8)C[C@H](C)[C@@H]7O6)O[C@@H]5C[C@@H]4O[C@H]3C[C@H]3O[C@@H](CC[C@@H]1O2)C[C@@H](C)C3=C [Halichondrin B, reference compound] | – | −38 | −2 | 0 | – | 1 | 0.154

Reference: patent US20240309014A1, “MACROCYCLIC COMPOUNDS AND USES THEREOF” (President and Fellows of Harvard College, priority 2017, published 2024)
